Test results from PubChem BioAssay (NCI).
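Five concentrations, 48 hours, 96-well plates. GI50 marks 50% less growth. TGI marks complete inhibition of growth.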

Tests used:
Test in all cases: NCI anticancer screen, dose series, 48 h
HCC-2998 colon = test system: HCC-2998 colon
KM12 colon = test system: KM12 colon
RXF 393 renal = test system: RXF 393 renal
SNB-19 CNS = test system: SNB-19 CNS
SNB-78 CNS = test system: SNB-78 CNS
UACC-62 melanoma = test system: UACC-62 melanoma
DLD-1 colon = test system: DLD-1 colon
HT29 colon = test system: HT29 colon
HOP-62 NSCLC = test system: HOP-62 NSCLC
MDA-MB-231 breast = test system: MDA-MB-231 breast

SMILES	TGI (HCC-2998 colon)	TGI (KM12 colon)	TGI (RXF 393 renal)	TGI (SNB-19 CNS)	TGI (SNB-78 CNS)	TGI (UACC-62 melanoma)	TGI (DLD-1 colon)	TGI (HT29 colon)	TGI (HOP-62 NSCLC)	GI50 (HCC-2998 colon)	GI50 (HOP-62 NSCLC)	GI50 (HT29 colon)	GI50 (KM12 colon)	GI50 (MDA-MB-231 breast)	TGI (MDA-MB-231 breast)	GI50 (RXF 393 renal)	GI50 (SNB-19 CNS)	GI50 (UACC-62 melanoma)
O=c1[nH]c(-c2ccccc2)nc2cc([N+](=O)[O-])c(/C(Cl)=C/c3ccccc3)cc12	> 100 µM	> 100 µM	72.7 µM	> 100 µM	> 100 µM	42.6 µM												
NNC(=O)N/N=C(/CC1(O)C(=O)Nc2ccc(Br)cc21)c1ccccc1 (stereo not given)		87.5 µM		46.2 µM	> 100 µM	50.9 µM	> 100 µM	> 100 µM										
CCCN(CCCC(NC(C)=O)C(=O)NCc1ccccc1)C(=O)N(C)N=O (stereo not given)	> 100 µM	> 100 µM	> 100 µM		> 100 µM	> 100 µM	> 100 µM	> 100 µM	> 100 µM									
CCOC(=O)C1(C)C2=CC=C(O2)C(C)(C)C2=CC=C(O2)C(C)(C)C2=CC=C(O2)C(C)(C)C2=CC=C1O2	> 100 µM	> 100 µM	> 100 µM	> 100 µM	> 100 µM			> 100 µM	> 100 µM									
O=C(CC(=O)N1N=C(n2ccc3ccccc32)CC1c1ccccc1)Nc1ccccc1Cl (stereo not given)	> 100 µM	> 100 µM	> 100 µM	> 100 µM	> 100 µM	> 100 µM		> 100 µM	> 100 µM									
C=C1C2CCCC1C1(S(C)(=O)=O)CCCCC21O (stereo not given)	> 100 µM	> 100 µM		> 100 µM	> 100 µM	> 100 µM	> 100 µM	> 100 µM										
NC(N)=NCCCC(Nc1c2ccccc2nc2ccccc12)C(=O)O (stereo not given)	> 100 µM	> 100 µM	> 100 µM				> 100 µM	> 100 µM										
O=C1CCC2(c3ccccc3)OCC([C@@H](O)c3ccccc3)N12 (stereo not given in full)		> 100 µM	> 100 µM	> 100 µM	> 100 µM	> 100 µM	> 100 µM	> 100 µM	> 100 µM									
Cc1[nH]c2ccccc2c1/C=C/c1c(C)[nH]c2ccccc12	> 100 µM	> 100 µM	> 100 µM		> 100 µM	> 100 µM	> 100 µM	> 100 µM	> 100 µM									
O=C(Nc1nc2ccc(OC(F)(F)F)cc2s1)c1ccc(F)cc1	> 100 µM	> 100 µM	13.7 µM	> 100 µM		50.3 µM		> 100 µM	26.9 µM	3.91 µM	3.81 µM	3.88 µM	2.69 µM	3.3 µM	18.9 µM	2.68 µM	3.74 µM	3.59 µM
CCOC(=O)C(Cc1ccccc1)n1c(O)c(/C=N/c2ncc(Cc3ccc(Cl)cc3Cl)s2)sc1=S (stereo not given)	42.3 µM	11.6 µM	6.7 µM	> 100 µM		6.37 µM		7.7 µM	8.12 µM	2.54 µM	2.69 µM	2.24 µM	1.84 µM	3.88 µM	21.4 µM	2.56 µM	5.05 µM	1.63 µM
COC(=O)C1C(=O)C(C(=O)OC)C2CCC1N2C (stereo not given)	> 100 µM	> 100 µM	> 100 µM	> 100 µM		> 100 µM		> 100 µM	> 100 µM						> 100 µM			
COc1ccc(N=Nc2c(-c3ccccc3)nn(C(=O)CC(=O)Nc3ccc(OC)cc3)c2-c2ccccc2)cc1	> 100 µM	> 100 µM		> 100 µM	> 100 µM	> 100 µM	> 100 µM	> 100 µM	> 100 µM									
Cc1cc(NS(=O)(=O)c2ccc(-c3cnc(C4CC4)o3)cc2)ccc1Cl	11.7 µM	13.4 µM	3.13 µM	16.3 µM		12.3 µM		3.89 µM	17 µM	1.23 µM	0.313 µM	0.191 µM	0.187 µM	0.794 µM	12.2 µM	0.173 µM	0.362 µM	0.117 µM
COC1(OC)CCC2(C)OC(c3ccccc3)C1O2 (stereo not given)	> 100 µM	> 100 µM	> 100 µM	> 100 µM		> 100 µM	> 100 µM	> 100 µM	> 100 µM									
CC1(C)CCC2(C(=O)O)C(O)CC3(C)C(=CCC4C5(C)CCC(OC6OCC(O)C(O)C6OC6OCC(O)C(O)C6OC6OCC(O)C(OC7OC(CO)C(O)C(O)C7O)C6O)C(C)(C)C5CCC43C)C2C1 (stereo not given)	> 100 µM	44.1 µM	59.1 µM	43.6 µM		> 100 µM		> 100 µM	> 100 µM						> 100 µM			
N#C/C(=C\c1ccc(O)c(O)c1)C(=O)NCc1cccc(C(F)(F)F)c1	22.2 µM	19.6 µM	84.5 µM	> 100 µM		23.8 µM		56.3 µM	42.2 µM	10.3 µM	13.4 µM	22 µM	4.04 µM	5.82 µM	29 µM	17.3 µM	19.4 µM	10.2 µM
CN(C)C/C=C/C(=O)Nc1ccc(C(=O)Nc2cccc(Nc3ncc(Cl)c(-c4c[nH]c5ccccc45)n3)c2)cc1	0.203 µM	0.232 µM	0.0397 µM	> 35.3 µM		0.259 µM		0.678 µM	> 100 µM	0.0154 µM	0.0697 µM	0.0385 µM	0.0747 µM	0.0332 µM	0.33 µM	0.0157 µM	0.0272 µM	0.043 µM
COC(=O)COc1ccccc1/C=C1/N=C(c2ccccc2)N(c2c(C)n(C)n(-c3ccccc3)c2=O)C1=O	> 100 µM	> 100 µM	> 100 µM	> 100 µM		> 100 µM		> 100 µM	> 100 µM	47.3 µM	> 100 µM	> 100 µM	79.6 µM	> 100 µM	> 100 µM	> 100 µM	> 100 µM	83.9 µM
COC(=O)C1=C(C)N(NC(N)=O)C2(N)N(NC(N)=O)C(C)=C(C(=O)OC)C12C#N (stereo not given)	> 100 µM	> 100 µM		> 100 µM	> 100 µM	> 100 µM	> 100 µM	> 100 µM	> 100 µM									
Oc1ccc(/C=N/NC(=S)Nc2ccccc2)nc1	> 100 µM	> 100 µM	4.91 µM	> 100 µM		4.95 µM		> 100 µM	7.29 µM	4.09 µM	0.766 µM	5.83 µM	1.91 µM	0.729 µM	> 100 µM	0.667 µM	1.93 µM	1.55 µM
CN(C)CC1CCCC/C1=N\OC(=O)c1ccccc1 (stereo not given)	> 100 µM	> 100 µM	> 100 µM		> 100 µM	> 100 µM	> 100 µM	> 100 µM	> 100 µM									
COc1ccc(C(=O)C(c2ccc(OC)cc2)C2(O)C(=O)Nc3c(Cl)cc(Cl)cc32)cc1 (stereo not given)		36.9 µM	39.6 µM	56 µM	57.7 µM		39.3 µM	42.4 µM	54.4 µM									
COc1ccc(-c2cc(-c3ccc(Cl)cc3)nc(SCCCC(=O)NO)n2)cc1OC	3.05 µM	3.22 µM	1.66 µM	4.43 µM		2.86 µM		> 26 µM	6.87 µM	1.5 µM	1.01 µM	1.46 µM	1.34 µM	0.788 µM	4.29 µM	0.417 µM	1.57 µM	1.01 µM
Cc1ncnc2c1ccn2[C@@H]1C[C@H](Oc2cc(C(F)F)c(F)c3c2CNCC3)[C@@H](O)[C@H]1O	> 100 µM	> 100 µM	> 100 µM	> 100 µM		> 100 µM		> 100 µM	> 100 µM	> 100 µM	> 100 µM	> 100 µM	> 100 µM	> 100 µM	> 100 µM	> 100 µM	> 100 µM	> 100 µM
Oc1c(Cl)cc(Cl)c(Cl)c1Cc1c(O)c(Cl)cc(Cl)c1Cl	12.9 µM	11.5 µM	22.4 µM	58.9 µM		12 µM		12.4 µM	12.1 µM	0.584 µM	1.37 µM	2.81 µM	0.953 µM	1.35 µM	5.53 µM	4.04 µM	0.908 µM	0.335 µM
Cc1c(Br)c(Br)c2c3c1nc(N1CCNCC1)n3CCC2	3.51 µM	3.2 µM	3.41 µM	3.01 µM		3.08 µM		3.2 µM	4.87 µM	1.81 µM	1.87 µM	1.51 µM	1.72 µM	1.36 µM	2.74 µM	1.7 µM	1.56 µM	1.62 µM
COc1cc(C(=O)/C=C/c2cccnc2Nc2ccc(Cl)cc2)cc(OC)c1OC	2.89 µM	3.55 µM	2.61 µM	2.88 µM		2.98 µM		3.25 µM	3.13 µM	1.52 µM	1.65 µM	1.43 µM	1.83 µM	1.49 µM	3.12 µM	1.26 µM	1.52 µM	1.54 µM
